{
  "source": "paper PMC8230704",
  "about": "(Journal of the American Chemical Society, 2021)",
  "key": {"[1]": {"test_system": "NDM-1", "settings": "substrate of NDM-1; cited from earlier work"}, "[2]": {"settings": "read-out: Kd,Zn(II); cited from earlier work"}, "[3]": {"target": "T1, NDM-1 (Klebsiella pneumoniae, UniProt C7C422)", "settings": "read-out: IC50 for purified NDM-1; cited from earlier work"}, "[4]": {"target": "NDM-15 Δ35 BL21 cells (Klebsiella pneumoniae, UniProt C7C422, A233V/M154L)", "test": "Confocal fluorescence imaging of 4D-treated live E. coli expressing Δ35 NDM-15", "type": "cell-based", "settings": "DPA up to 200 μM"}, "[5]": {"target": "T1, NDM-1", "test": "Challenge of fluorescent 4D:NDM-1 complex with inhibitors and chelators", "type": "binding"}, "[6]": {"target": "Δ35 NDM-1 expressing BL21 (DE3) E. coli (Klebsiella pneumoniae, UniProt C7C422)", "test": "cell-based"}, "[7]": {"target": "T1, NDM-1", "test": "NDM-1 inhibition with chromacef substrate", "type": "biochemical"}},
  "note": "Read-outs that look alike come from different tables or passages of the source.",
  "data": [
    {"compound": "CC1=C(C(=O)O)N2C(=O)[C@@H](NC(=O)[C@H](N)c3ccccc3)[C@H]2SC1", "note": "[cephalexin]", "values": [
      {"measurement": "Km", "setting": "[1]", "value": 5.6, "unit": "µM"}
    ]},
    {"compound": "O=C([O-])CN(CCN(CC(=O)O)CC(=O)O)CC(=O)[O-].[Ca+2]", "note": "[CaEDTA, calcium EDTA]", "values": [
      {"measurement": "Kd", "setting": "[2]", "value": 0.001, "unit": "µM"}
    ]},
    {"compound": "O=C(O)c1cccc(C(=O)O)n1", "note": "[DPA, dipicolinic acid]", "values": [
      {"measurement": "IC50", "setting": "[3]", "value": 0.5, "unit": "µM"},
      {"measurement": "effect on fluorescence", "setting": "[4]", "value": "no effect on fluorescence"},
      {"measurement": "fluorescence turn-on of 4D:NDM-1 after treatment", "setting": "[5]; DPA 150 μM, 50 μM ZnSO4, from 17-fold maximum", "value": 13, "unit": "fold"},
      {"measurement": "IC50", "setting": "[6]", "value": "~200", "unit": "µM"},
      {"measurement": "IC50", "setting": "[7]", "value": 154, "unit": "µM"}
    ]},
    {"compound": "c1ccc(CN(CCN(Cc2ccccn2)Cc2ccccn2)Cc2ccccn2)nc1", "note": "[TPEN, N,N,N′,N′-tetrakis(2-pyridinyl-methyl)-1,2-ethanediamine]", "values": [
      {"measurement": "fluorescence after pre-incubation of NDM-1 with TPEN", "setting": "[5]; 10 μM NDM-1 and 10 μM 4D, recovered upon excess ZnSO4", "value": "complete reduction of fluorescence"},
      {"measurement": "fluorescence turn-on after pre-incubation of NDM-1 with TPEN", "setting": "[5]; 30 μM NDM-1 pre-incubated with TPEN, then 10 μM 4D", "value": "~ 4 fold"},
      {"measurement": "fluorescence turn-on of 4D:NDM-1 after treatment", "setting": "[5]; TPEN 50 μM, 10 μM ZnSO4, from 12-fold", "value": 9.2, "unit": "fold"}
    ]},
    {"compound": "chromacef", "values": [
      {"measurement": "Km", "setting": "[1]", "value": "0.66 ± 0.2", "unit": "µM"}
    ]}
  ]
}
